Measurements published in patent US20230092890A1, “1, 3, 4-Oxadiazole derivative compounds as histone deacetylase 6 inhibitor, and the pharmaceutical composition comprising the same” (Chong Kun Dang Pharmaceutical Corp., priority 2019, published 2023).

Columns and labels:
HDAC6 human recombinant = molecular target: T1, HDAC6 human recombinant (Homo sapiens, UniProt Q9UBN7); experiment: HDAC enzyme activity inhibition (in vitro), HDAC6 assay; format: biochemical; settings: samples at 0.1, 1, 10, 100 and 1000 nM; 37° C. 60 minutes; fluorescence Ex 390, Em 460; read-out: HDAC6 IC50
T1 construct: purchased Calbiochem 382180
T1 sequence (Q9UBN7 1-1215): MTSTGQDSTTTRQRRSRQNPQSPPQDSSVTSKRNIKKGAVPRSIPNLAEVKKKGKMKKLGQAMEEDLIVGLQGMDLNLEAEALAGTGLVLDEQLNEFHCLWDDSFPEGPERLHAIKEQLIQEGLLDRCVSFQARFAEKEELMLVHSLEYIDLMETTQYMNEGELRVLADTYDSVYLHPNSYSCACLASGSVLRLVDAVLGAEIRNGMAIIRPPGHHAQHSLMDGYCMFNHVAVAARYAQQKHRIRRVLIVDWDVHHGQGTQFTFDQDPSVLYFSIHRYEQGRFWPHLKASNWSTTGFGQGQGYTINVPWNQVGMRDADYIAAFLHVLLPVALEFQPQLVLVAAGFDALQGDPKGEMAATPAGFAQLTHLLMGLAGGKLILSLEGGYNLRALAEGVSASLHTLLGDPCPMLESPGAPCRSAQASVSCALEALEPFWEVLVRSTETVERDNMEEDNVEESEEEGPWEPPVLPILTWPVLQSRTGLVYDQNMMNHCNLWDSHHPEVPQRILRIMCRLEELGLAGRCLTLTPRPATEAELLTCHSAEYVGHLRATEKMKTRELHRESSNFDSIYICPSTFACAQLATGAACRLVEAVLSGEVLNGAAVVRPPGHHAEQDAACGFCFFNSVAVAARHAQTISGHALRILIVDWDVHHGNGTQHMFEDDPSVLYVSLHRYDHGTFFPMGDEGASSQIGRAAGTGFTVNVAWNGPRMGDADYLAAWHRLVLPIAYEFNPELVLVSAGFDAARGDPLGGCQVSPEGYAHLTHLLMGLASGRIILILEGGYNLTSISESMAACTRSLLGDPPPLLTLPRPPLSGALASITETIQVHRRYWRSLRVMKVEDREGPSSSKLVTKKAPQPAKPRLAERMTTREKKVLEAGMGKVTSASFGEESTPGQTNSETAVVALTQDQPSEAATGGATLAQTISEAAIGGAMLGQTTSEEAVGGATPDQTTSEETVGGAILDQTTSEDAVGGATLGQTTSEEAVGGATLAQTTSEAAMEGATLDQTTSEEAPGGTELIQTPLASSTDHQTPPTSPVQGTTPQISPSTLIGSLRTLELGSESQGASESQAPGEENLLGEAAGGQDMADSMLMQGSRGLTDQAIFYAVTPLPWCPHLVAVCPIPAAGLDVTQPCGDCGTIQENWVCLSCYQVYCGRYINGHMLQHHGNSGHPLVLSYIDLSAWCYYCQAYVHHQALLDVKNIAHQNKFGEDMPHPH
Procedure: A HDAC enzyme inhibitory capacity of a test material was measured by using HDAC1 Fluorimetric Drug Discovery Assay Kit (Enzolifesciences: BML-AK511) and HDAC6 human recombinant (Calbiochem: 382180). For a HDAC1 assay, samples were treated at a concentration of 100, 1000 and 10000 nM. […] After the above sample treatment, a reaction was continued at 37° C. for 60 minutes, then treated with a developer, and then subjected to a reaction at 37° C. for 30 minutes, after which fluorescence intensity (Ex 390, Em 460) was measured by using FlexStatin3 (Molecular device).

HDAC1 = molecular target: T2, HDAC1 (Homo sapiens, UniProt Q13547); experiment: HDAC enzyme activity inhibition (in vitro), HDAC1 Fluorimetric Drug Discovery Assay Kit; format: biochemical; settings: samples at 100, 1000 and 10000 nM; 37° C. 60 minutes; fluorescence Ex 390, Em 460; read-out: HDAC1 IC50
T2 construct: purchased Enzolifesciences BML-AK511
T2 sequence (Q13547 whole entry): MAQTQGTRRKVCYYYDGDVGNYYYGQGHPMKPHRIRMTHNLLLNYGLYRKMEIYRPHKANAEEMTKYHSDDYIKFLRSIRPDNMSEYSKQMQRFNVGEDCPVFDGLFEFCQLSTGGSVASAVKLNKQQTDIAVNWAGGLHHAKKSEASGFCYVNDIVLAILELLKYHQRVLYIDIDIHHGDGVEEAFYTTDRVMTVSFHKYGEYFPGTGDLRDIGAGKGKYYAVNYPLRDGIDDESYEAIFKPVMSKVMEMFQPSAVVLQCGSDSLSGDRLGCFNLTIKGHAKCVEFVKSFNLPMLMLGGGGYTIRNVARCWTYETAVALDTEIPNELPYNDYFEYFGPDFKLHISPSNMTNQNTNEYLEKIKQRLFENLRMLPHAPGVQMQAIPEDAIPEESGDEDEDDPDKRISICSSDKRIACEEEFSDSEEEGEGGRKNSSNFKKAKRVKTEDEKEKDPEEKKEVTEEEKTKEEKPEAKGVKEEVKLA
Procedure: <Experimental Example 1> Identification of HDAC Enzyme Activity Inhibition (In Vitro)
A selective HDAC6 inhibitor is important for selectivity of HDAC1 inhibition, which is a cause of side effects, and thus HDAC1/6 enzyme selectivity and cell selectivity (HDAC1: histone acetylation/HDAC6: tubulin acetylation) were identified.
A HDAC enzyme inhibitory capacity of a test material was measured by using HDAC1 Fluorimetric Drug Discovery Assay Kit (Enzolifesciences: BML-AK511) and HDAC6 human recombinant (Calbiochem: 382180). For a HDAC1 assay, samples were treated at a concentration of 100, 1000 and 10000 nM. For a HDAC6 assay, samples were treated at a concentration of 0.1, 1, 10, 100 and 1000 nM. After the above sample treatment, a reaction was continued at 37° C. for 60 minutes, then treated with a developer, and then subjected to a reaction at 37° C. for 30 minutes, after which fluorescence intensity (Ex 390, Em 460) was measured by using FlexStatin3 (Molecular device).

IC50 (HDAC6 human recombinant) [nM]	IC50 (HDAC1) [nM]	SMILES
236	> 10000	CN1CCC(n2c(=O)n(Cc3ccc(-c4nnc(C(F)F)o4)cc3F)c3ccccc32)CC1 [Compound 1, 1-(4-(5-(difluoromethyl)-1,3,4-oxadiazole-2-yl)-2-fluorobenzyl)-3-(1-methylpiperidine-4-yl)-1,3-dihydro-2H-benzo[d]imidazole-2-one]
203	> 10000	O=c1n(CCN2CCOCC2)c2ccccc2n1Cc1ccc(-c2nnc(C(F)F)o2)cc1F [Compound 2, 1-(4-(5-(difluoromethyl)-1,3,4-oxadiazole-2-yl)-2-fluorobenzyl)-3-(2-morpholinoethyl)-1,3-dihydro-2H-benzo[d]imidazole-2-one]
115	> 10000	CN(C)CCn1c(=O)n(Cc2ccc(-c3nnc(C(F)F)o3)cn2)c2ccccc21 [Compound 3, 1-((5-(5-(difluoromethyl)-1,3,4-oxadiazole-2-yl)pyridine-2-yl)methyl)-3-(2-(dimethylamino)ethyl)-1,3-dihydro-2H-benzo[d]imidazole-2-one]
178	> 10000	CN1CCC(n2c(=O)n(Cc3ccc(-c4nnc(C(F)F)o4)cn3)c3ccccc32)CC1 [Compound 4, 1-((5-(5-(difluoromethyl)-1,3,4-oxadiazole-2-yl)pyridine-2-yl)methyl)-3-(1-methylpiperidine-4-yl)-1,3-dihydro-2H-benzo[d]imidazole-2-one]
340	> 10000	CN1CCC(n2c(=O)n(Cc3ccc(-c4nnc(C(F)F)o4)cc3)c3ccccc32)CC1 [Compound 5, 1-(4-(5-(difluoromethyl)-1,3,4-oxadiazole-2-yl)benzyl)-3-(1-methylpiperidine-4-yl)-1,3-dihydro-2H-benzo[d]imidazole-2-one]
203	> 10000	CN1CCC(n2c(=O)n(Cc3ccc(-c4nnc(C(F)F)o4)cn3)c3ccccc32)C1 (stereo not shown) [Compound 6, 1-((5-(5-(difluoromethyl)-1,3,4-oxadiazole-2-yl)pyridine-2-yl)methyl)-3-(1-methylpyrrolidine-3-yl)-1,3-dihydro-2H-benzo[d]imidazole-2-one]
264	> 10000	CN1CC(n2c(=O)n(Cc3ccc(-c4nnc(C(F)F)o4)cn3)c3ccccc32)C1 [Compound 7, 1-((5-(5-(difluoromethyl)-1,3,4-oxadiazole-2-yl)pyridine-2-yl)methyl)-3-(1-methylazetidine-3-yl)-1,3-dihydro-2H-benzo[d]imidazole-2-one]
171	> 10000	CN1CCC(N2Cc3ccccc3N(Cc3ccc(-c4nnc(C(F)F)o4)cn3)C2=O)CC1 [Compound 8, 1-((5-(5-(difluoromethyl)-1,3,4-oxadiazole-2-yl)pyridine-2-yl)methyl)-3-(1-methylpiperidine-4-yl)-3,4-dihydroquinazoline-2(1H)-one]
332	> 10000	CN1CC(N2Cc3ccccc3N(Cc3ccc(-c4nnc(C(F)F)o4)cn3)C2=O)C1 [Compound 9, 1-((5-(5-(difluoromethyl)-1,3,4-oxadiazole-2-yl)pyridine-2-yl)methyl)-3-(1-methylazetidine-3-yl)-3,4-dihydroquinazoline-2(1H)-one]
222	> 10000	CN1CCC(Cn2c(=O)n(Cc3ccc(-c4nnc(C(F)F)o4)cn3)c3ccccc32)CC1 [Compound 10, 1-((5-(5-(difluoromethyl)-1,3,4-oxadiazole-2-yl)pyridine-2-yl)methyl)-3-((1-methylpiperidine-4-yl)methyl)-1,3-dihydro-2H-benzo[d]imidazole-2-one]
241	> 10000	O=c1n(Cc2ccc(-c3nnc(C(F)F)o3)cn2)c2ccccc2n1C1COC1 [Compound 11, 1-((5-(5-(difluoromethyl)-1,3,4-oxadiazole-2-yl)pyridine-2-yl)methyl)-3-(oxetan-3-yl)-1,3-dihydro-2H-benzo[d]imidazole-2-one]
160	> 10000	O=c1n(Cc2ccc(-c3nnc(C(F)F)o3)cn2)c2ccccc2n1C1CCOCC1 [Compound 12, 1-((5-(5-(difluoromethyl)-1,3,4-oxadiazole-2-yl)pyridine-2-yl)methyl)-3-(tetrahydro-2H-pyran-4-yl)-1,3-dihydro-2H-benzo[d]imidazole-2-one]
161	> 10000	O=c1n(Cc2ccc(-c3nnc(C(F)F)o3)cn2)c2ccccc2n1C1CCS(=O)(=O)CC1 [Compound 13, 1-((5-(5-(difluoromethyl)-1,3,4-oxadiazole-2-yl)pyridine-2-yl)methyl)-3-(1,1-dioxydotetrahydro-2H-thiopyran-4-yl)-1,3-dihydro-2H-benzo[d]imidazole-2-one]
209	> 10000	CCN1CCC(n2c(=O)n(Cc3ccc(-c4nnc(C(F)F)o4)cc3F)c3ccccc32)CC1 [Compound 14, 1-(4-(5-(difluoromethyl)-1,3,4-oxadiazole-2-yl)-2-fluorobenzyl)-3-(1-ethylpiperidine-4-yl)-1,3-dihydro-2H-benzo[d]imidazole-2-one]
193	> 10000	CC(C)N1CCC(n2c(=O)n(Cc3ccc(-c4nnc(C(F)F)o4)cc3F)c3ccccc32)CC1 [Compound 15, 1-(4-(5-(difluoromethyl)-1,3,4-oxadiazole-2-yl)-2-fluorobenzyl)-3-(1-isopropylpiperidine-4-yl)-1,3-dihydro-2H-benzo[d]imidazole-2-one]
–	> 10000	O=c1n(Cc2ccc(-c3nnc(C(F)F)o3)cn2)c2cc(F)ccc2n1C1CCN(C2CCC2)CC1 [Compound 52, 1-(1-cyclobutylpiperidine-4-yl)-3-((5-(5-(difluoromethyl)-1,3,4-oxadiazole-2-yl)pyridine-2-yl)methyl)-5-fluoro-1,3-dihydro-2H-benzo[d]imidazole-2-one]
–	> 10000	O=c1n(Cc2ccc(-c3nnc(C(F)F)o3)cn2)c2cc(F)ccc2n1C1CCS(=O)(=O)CC1 [Compound 188, 3-((5-(5-(difluoromethyl)-1,3,4-oxadiazole-2-yl)pyridine-2-yl)methyl)-1-(1,1-dioxydotetrahydro-2H-thiopyran-4-yl)-5-fluoro-1,3-dihydro-2H-benzo[d]imidazole-2-one]
–	> 10000	Cn1nccc1-c1cc2c(cc1F)n(Cc1ccc(-c3nnc(C(F)F)o3)cn1)c(=O)n2C [Compound 226, 1-((5-(5-(difluoromethyl)-1,3,4-oxadiazole-2-yl)pyridine-2-yl)methyl)-6-fluoro-3-methy 1-5-(1-methyl-1H-pyrazole-5-yl)-1,3-dihydro-2H-benzo[d]imidazole-2-one]
–	> 10000	CN1CCN(c2cc3c(cc2F)n(Cc2ccc(-c4nnc(C(F)F)o4)cn2)c(=O)n3C)CC1 [Compound 260, 1-((5-(5-(difluoromethyl)-1,3,4-oxadiazole-2-yl)pyridine-2-yl)methyl)-6-fluoro-3-methy 1-5-(4-methylpiperazine-1-yl)-1,3-dihydro-2H-benzo[d]imidazole-2-one]
